These results are taken from ChEMBL document CHEMBL5608246, “Membrane-Targeting Amphiphilic Honokiol Derivatives Containing an Oxazole Moiety as Potential Antibacterials against Methicillin-Resistant Staphylococcus aureus” (J Med Chem, 2024).

In brackets after ≈: the same amount, converted by molar mass. Activity calls are given as the source filed them. No cut-off for these calls is given here.

One data set has as its system Cell membrane. Briefly: Induction of membrane permeability in methicillin resistant Staphylococcus aureus 20 at 32 ug/ml measured at 2 mins interval over 20 mins by SYTOX green staining based assay. The following applies: dose 32.0 µg/ml.
For data set [1], the system named is Staphylococcus aureus. Kind of data set: Antibacterial activity against Staphylococcus aureus ATCC 29213 assessed as resistance development by measuring fold increase in MIC after 20 passages incubated for 16 to 18 hrs. Type of data set: functional. As to conditions: time 16-18 hrs.
A short description of data set [2]: Toxicity in Kunming mouse skin abscess model infected with methicillin resistant Staphylococcus aureus assessed as liver damage at 5 mg/kg, sc measured after 2 hrs by H and E staining based assay. It is filed as organism-based. As to conditions: in vivo.
A short description of data set [3]: Toxicity in Kunming mouse skin abscess model infected with methicillin resistant Staphylococcus aureus assessed as heart damage at 5 mg/kg, sc measured after 2 hrs by H and E staining based assay. As to conditions: in vivo. It is filed as organism-based.
For data set [4], the system named is Staphylococcus aureus. Briefly: Antibacterial activity against methicillin resistant Staphylococcus aureus 20 infected in Kunming mouse skin abscess model assessed as reduction in IL-6 level at 5 mg/kg, sc measured after 2 hrs by ELISA. It is filed as functional, organism-based. In general terms: ELISA stands for enzyme-linked immunosorbent assay.
Data set [5] deals with Staphylococcus aureus. Kind of data set: Antibacterial activity against methicillin resistant Staphylococcus aureus 20 infected in Kunming mouse skin abscess model assessed as reduction in TNF-alpha level at 5 mg/kg, sc measured after 2 hrs by ELISA. It is filed as functional, organism-based.
Data set [6] is described as follows: Toxicity in Kunming mouse skin abscess model infected with methicillin resistant Staphylococcus aureus assessed as kidneys damage at 5 mg/kg, sc measured after 2 hrs by H and E staining based assay. Type of data set: organism-based. The following applies: in vivo.
Data set [7] relates to Staphylococcus aureus. Kind of data set: Antibacterial activity against methicillin resistant Staphylococcus aureus 20 infected in Kunming mouse skin abscess model assessed as reduction in inflammatory cells in infection sites at 5 mg/kg, sc measured after 2 hrs. It is filed as functional, organism-based.
A short description of data set [8]: Toxicity in Kunming mouse skin abscess model infected with methicillin resistant Staphylococcus aureus assessed as spleen damage at 5 mg/kg, sc measured after 2 hrs by H and E staining based assay. Type of data set: organism-based. The following applies: in vivo.
Data set [9] deals with Staphylococcus aureus. Briefly: Bactericidal activity against Staphylococcus aureus ATCC 29213 at 8 times MIC within 8 hrs by time kill assay. It is filed as functional, organism-based.
The nature of data set [10]: Toxicity in Kunming mouse skin abscess model infected with methicillin resistant Staphylococcus aureus assessed as lungs damage at 5 mg/kg, sc measured after 2 hrs by H and E staining based assay. Type of data set: organism-based. As to conditions: in vivo.
Data set [11] relates to Staphylococcus aureus. Briefly: Antibacterial activity against methicillin resistant Staphylococcus aureus 20 infected in Kunming mouse skin abscess model assessed as reduction in bacterial load at 5 mg/kg, sc measured after 2 hrs. On the set-up: scale not given: the % may be the effect or the level left. Type of data set: functional.
Data set [12] is described as follows: Hemolytic activity in sheep RBC incubated for 1 hr. Type of data set: toxicity, cell-based, Ovis aries, Erythrocyte. As to conditions: sheep red blood cells (erythrocytes).
In data set [13] the test system is Staphylococcus aureus. Briefly: Antibacterial activity against methicillin resistant Staphylococcus aureus M23 incubated for 16 to 18 hrs by broth dilution method. Type of data set: functional. The following applies: time 16-18 hrs. For orientation: Dilution methods test growth across graded concentrations, often in twofold steps.
Data set [14] concerns Staphylococcus aureus. Kind of data set: Antibacterial activity against methicillin resistant Staphylococcus aureus M21 incubated for 16 to 18 hrs by broth dilution method. Type of data set: functional. The following applies: time 16-18 hrs.
For data set [15], the system named is Staphylococcus aureus. Briefly: Antibacterial activity against methicillin resistant Staphylococcus aureus M13 incubated for 16 to 18 hrs by broth dilution method. The following applies: time 16-18 hrs. Type of data set: functional.
Data set [16] concerns Staphylococcus aureus. Kind of data set: Antibacterial activity against methicillin resistant Staphylococcus aureus M22 incubated for 16 to 18 hrs by broth dilution method. Type of data set: functional. The following applies: time 16-18 hrs.
In data set [17] the test system is Staphylococcus aureus. Briefly: Antibacterial activity against methicillin resistant Staphylococcus aureus M16 incubated for 16 to 18 hrs by broth dilution method. Type of data set: functional. The following applies: time 16-18 hrs.
The nature of data set [18]: Selectivity index, ratio of HC50 for sheep RBC to MIC for Staphylococcus aureus ATCC 29213. It is filed as toxicity. The following applies: sheep red blood cells, read-out: Selectivity Index.
For the next data set, the system named is Escherichia coli. Briefly: Antibacterial activity against Escherichia coli ATCC 25922 incubated for 16 to 18 hrs by broth dilution method. Type of data set: functional. As to conditions: time 16-18 hrs.
For data set [19], the system named is Staphylococcus aureus. Briefly: Antibacterial activity against methicillin resistant Staphylococcus aureus M20 incubated for 16 to 18 hrs by broth dilution method. It is filed as functional. The following applies: time 16-18 hrs.
Data set [20] deals with Staphylococcus aureus. Briefly: Antibacterial activity against methicillin resistant Staphylococcus aureus N315 incubated for 16 to 18 hrs by broth dilution method. It is filed as functional. As to conditions: time 16-18 hrs.
Data set [21] relates to Staphylococcus aureus. Kind of data set: Antibacterial activity against methicillin resistant Staphylococcus aureus M17 incubated for 16 to 18 hrs by broth dilution method. It is filed as functional. As to conditions: time 16-18 hrs.
Data set [22] concerns Staphylococcus aureus. Briefly: Antibacterial activity against Staphylococcus aureus ATCC 29213 incubated for 16 to 18 hrs by broth dilution method. Type of data set: functional. As to conditions: time 16-18 hrs.
Data set [23] deals with Staphylococcus aureus. Briefly: Antibacterial activity against methicillin resistant Staphylococcus aureus M11 incubated for 16 to 18 hrs by broth dilution method. Type of data set: functional. As to conditions: time 16-18 hrs.
Data set [24] relates to Staphylococcus aureus. Briefly: Antibacterial activity against methicillin resistant Staphylococcus aureus M14 incubated for 16 to 18 hrs by broth dilution method. It is filed as functional. As to conditions: time 16-18 hrs.
Data set [25] deals with Staphylococcus aureus. Briefly: Antibacterial activity against methicillin resistant Staphylococcus aureus M12 incubated for 16 to 18 hrs by broth dilution method. Type of data set: functional. As to conditions: time 16-18 hrs.

As for `CC[C@H](C)[C@H](NC(=O)CN)C(=O)NCC(=O)N[C@@H](C)C(=O)N[C@H](C(=O)N[C@@H](CC(C)C)C(=O)N[C@@H](CCCCN)C(=O)N[C@H](C(=O)N[C@@H](CC(C)C)C(=O)N[C@H](C(=O)N[C@H](C(=O)NCC(=O)N[C@@H](CC(C)C)C(=O)N1CCC[C@H]1C(=O)N[C@@H](C)C(=O)N[C@@H](CC(C)C)C(=O)N[C@H](C(=O)N[C@@H](CO)C(=O)N[C@@H](Cc1c[nH]c2ccccc12)C(=O)N[C@H](C(=O)N[C@@H](CCCCN)C(=O)N[C@@H](CCCNC(=N)N)C(=O)N[C@@H](CCCCN)C(=O)N[C@@H](CCCNC(=N)N)C(=O)N[C@@H](CCC(N)=O)C(=O)N[C@@H](CCC(N)=O)C(N)=O)[C@@H](C)CC)[C@@H](C)CC)[C@@H](C)O)[C@@H](C)O)C(C)C)C(C)C`, the outcome in the data set with Cell membrane was Active.

As for `CCn1cc(C(=O)O)c(=O)c2cc(F)c(N3CCNCC3)cc21` [NORFLOXACIN], the “fold change (FC)” value in the data set on Staphylococcus aureus [1] worked out at 128.

Consider `CN[C@H](CC(C)C)C(=O)N[C@H]1C(=O)N[C@@H](CC(N)=O)C(=O)N[C@H]2C(=O)N[C@H]3C(=O)N[C@H](C(=O)N[C@H](C(=O)O)c4cc(O)cc(O)c4-c4cc3ccc4O)[C@H](O)c3ccc(c(Cl)c3)Oc3cc2cc(c3O[C@@H]2O[C@H](CO)[C@@H](O)[C@H](O)[C@H]2O[C@H]2C[C@](C)(N)[C@H](O)[C@H](C)O2)Oc2ccc(cc2Cl)[C@H]1O` [VANCOMYCIN], for which the Activity entry is given as “Non-Toxic” in [2]; “Non-Toxic” in [3]; “Non-Toxic” in [6]; “Non-Toxic” in data set [8]; “Non-Toxic” in [10]; 95.62% with Staphylococcus aureus [11]. The outcome in the data set on Staphylococcus aureus [4], in the data set with Staphylococcus aureus [5] and in the data set with Staphylococcus aureus [7] was Active. For the same compound, the result in the data set with Staphylococcus aureus [9] was inactive.

With `C=CCc1cc(-c2ccc(OCCC[N+](C)(C)CC(=O)NCCCC)c(CC=C)c2)c2oc(-c3ccc(Cl)c(Cl)c3)nc2c1.[Br-]`, in data set [12], the HC50 – broadly, the concentration that lyses half of the red blood cells – at 1 h was found to be 87.6 µg/mL. For the same compound, the MIC (in general, the least concentration at which growth counts as inhibited) in the data set with Staphylococcus aureus [13] is 64 µg/mL; in the data set on Staphylococcus aureus [14], 32 µg/mL; against Staphylococcus aureus [15], 16 µg/mL; in the data set on Staphylococcus aureus [16], 64 µg/mL; in the data set with Staphylococcus aureus [17], 32 µg/mL; with Escherichia coli, > 128 µg/mL. Further, the MIC against Staphylococcus aureus [19] turned out to be 32 µg/mL; against Staphylococcus aureus [20] it was 128 µg/mL; in the data set on Staphylococcus aureus [21], 128 µg/mL; against Staphylococcus aureus [22], 128 µg/mL; against Staphylococcus aureus [23] it was 64 µg/mL; in the data set with Staphylococcus aureus [24], 32 µg/mL. For the same compound, 32 µg/mL was the least that counted as inhibitory with Staphylococcus aureus [25] (MIC). Also, the selectivity ratio in data set [18] was determined as 0.7.

On to `C=CCc1ccc(O)c(-c2ccc(O)c(CC=C)c2)c1` [HONOKIOL], for which, in data set [12], the HC50 at 1 h is > 80 µg/mL. The MIC in the data set with Staphylococcus aureus [13] is 16 µg/mL (≈ 60.1 µM); with Staphylococcus aureus [14], 16 µg/mL (≈ 60.1 µM); against Staphylococcus aureus [15], 16 µg/mL (≈ 60.1 µM); against Staphylococcus aureus [16], 16 µg/mL (≈ 60.1 µM); with Staphylococcus aureus [17], 16 µg/mL (≈ 60.1 µM); in the data set on Escherichia coli, > 128 µg/mL. For the same compound, the MIC in the data set with Staphylococcus aureus [19] came to 8 µg/mL (≈ 30 µM); against Staphylococcus aureus [20], 8 µg/mL (≈ 30 µM); in the data set on Staphylococcus aureus [21] it was 16 µg/mL (≈ 60.1 µM); against Staphylococcus aureus [22] it was 64 µg/mL (≈ 240 µM); against Staphylococcus aureus [23], 16 µg/mL (≈ 60.1 µM); in the data set with Staphylococcus aureus [24] it was 16 µg/mL (≈ 60.1 µM). For the same compound, the minimal inhibitory concentration (MIC) in the data set on Staphylococcus aureus [25] is 8 µg/mL (≈ 30 µM). Besides, in data set [18], the selectivity ratio was > 1.25.
